Data published in US20030181333A1, “Herbicide combinations comprising specific sulfonylureas” (Bayer CropScience GmbH, priority 2002, published 2003).

Experiments:
Assay type in all cases: in vivo
Details in all cases: applied at 3-5 leaf stage, scored visually approx. 4-6 weeks after application, means of 2-3 repetitions, g of AS/ha: (A1 + B2)^S 12.5 + 6.25; Azur 800 + 40 + 200; B2 5; E) 60
[1] = tested on: Avena fatua; assay: Outdoor trial: herbicidal action, visual score
Description: (§1) Herbicidal action and compatibility in outdoor trials
(§2) The plants were sown and cultivated (fertilization, irrigation, etc.) as customary in practice on trial fields with naturally occurring weeds.
(§3) The experiments were designed as random tests of 2 plots of 5-10 m^2, with 2-3 repetitions. Application was carried out using plot sprayers at the 3-5 leaf stage. The test substances were made up in 100-600 liters of water/ha and applied with a pressure of 3 bar.
(§4) After the treatment (approx. 4-6 weeks after application), the herbidical activity of the active compounds or active compound mixtures was scored visually by comparing the treated plants with the untreated controls. The damage and development of all above-ground parts of the plants was recorded. Scoring was done on a percentage scale (100% action=all plants dead; 50% action=50% of the plants and green plant parts dead; 0% action=no discernible action or damage to crop species.
(§5) In the tables below, the results are given as the means of 2-3 repetitions, and the activity achieved when active compounds (A+B) and C) were applied independently is stated in brackets.

[2] = tested on: Galium aparine; assay: Outdoor trial: herbicidal action, visual score
Description: as §1, §2, §3, §4, §5

[3] = tested on: Winter wheat; assay: Outdoor trial: compatibility, % damage to crop
Description: as §1, §2, §3, §4, §5

SMILES	% Activity Avena fatua [1]	% Activity Galium aparine [2]	Winter wheat % Damage [3] [%]
CCOC(=O)[C@@H](C)Oc1ccc(Oc2nc3ccc(Cl)cc3o2)cc1 [E), fenoxaprop-(P)-ethyl]	70) %	0) %	–
COC(=O)c1ccc(I)cc1S(=O)(=O)[N-]C(=O)Nc1nc(C)nc(OC)n1.[Na+] [B2, iodosulfuron-methyl-sodium]	68%	25%	0
